The source of these data is US8129355B2, “Ketone ligands for modulating the expression of exogenous genes via an ecdysone receptor complex” (priority 2002, dated 2012).

Like-named read-outs stand apart in the source and are kept apart here.

The series concerns the target T1, Bombyx mori EcR (VP16 fusion, switch construct CVBE) with 6XEcRE LacZ reporter (Bombyx mori, UniProt P49881).
T1 construct: expressed in transfected cells; host or cells: Human 293 kidney (HEK-293) cells, retrovirally infected, clone Z3
T1 sequence (P49881 86-606 limits assumed): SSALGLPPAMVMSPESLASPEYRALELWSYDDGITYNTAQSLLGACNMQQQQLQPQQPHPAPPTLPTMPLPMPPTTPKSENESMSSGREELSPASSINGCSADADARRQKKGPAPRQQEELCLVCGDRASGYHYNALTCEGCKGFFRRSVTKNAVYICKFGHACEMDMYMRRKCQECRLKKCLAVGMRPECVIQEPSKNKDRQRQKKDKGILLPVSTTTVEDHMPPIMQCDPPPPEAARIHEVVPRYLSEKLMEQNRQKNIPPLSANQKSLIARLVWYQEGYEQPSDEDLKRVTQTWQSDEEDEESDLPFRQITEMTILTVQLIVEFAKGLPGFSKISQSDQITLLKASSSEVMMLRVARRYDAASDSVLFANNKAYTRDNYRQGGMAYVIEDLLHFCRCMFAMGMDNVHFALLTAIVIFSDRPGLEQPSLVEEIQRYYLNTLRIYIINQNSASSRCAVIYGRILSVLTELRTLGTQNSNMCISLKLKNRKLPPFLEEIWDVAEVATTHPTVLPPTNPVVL
T1 sequence (P19793 1-462 partner): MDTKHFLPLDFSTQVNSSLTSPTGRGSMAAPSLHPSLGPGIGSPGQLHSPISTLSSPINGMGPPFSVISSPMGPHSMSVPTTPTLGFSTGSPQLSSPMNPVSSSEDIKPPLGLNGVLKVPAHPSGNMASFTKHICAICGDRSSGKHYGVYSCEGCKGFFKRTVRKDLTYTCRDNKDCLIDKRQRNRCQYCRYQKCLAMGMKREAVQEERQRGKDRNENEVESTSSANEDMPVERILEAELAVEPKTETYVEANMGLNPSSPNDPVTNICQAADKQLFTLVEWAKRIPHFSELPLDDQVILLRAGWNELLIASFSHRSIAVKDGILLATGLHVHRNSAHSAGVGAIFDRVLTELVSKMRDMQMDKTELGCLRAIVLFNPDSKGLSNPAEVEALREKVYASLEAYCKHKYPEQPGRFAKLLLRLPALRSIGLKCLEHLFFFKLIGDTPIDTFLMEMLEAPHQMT
Put plainly: Z3 assay: β-galactosidase (LacZ) reporter gene fold induction in stably transformed human 293 kidney cells (clone Z3). Type of series: cell-based. In short, it runs like this: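 β-Galactosidase read 48 h after dosing by bioluminescent assay; ligand added at 33 μM with DMSO held at 0.03%. The cells are stable 293 clone Z3, expressing a CMV-driven VP16 fusion of Bombyx mori EcR residues 26-546 plus six EcRE copies upstream of lacZ.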
Background: In a reporter assay the amount or activity of a reporter protein is the signal.

The mark [1] stands for this setting: maximum fold induction at any concentration relative to that of GS-E ligand.
Setting [2] is: read-out: Fold Induction Average, Z3 Assay (33 μM).
Where [3] appears, read: read-out: Z3 LC50; average; dose response, three-parameter logistic model.
Setting [4] is: average; dose response, three-parameter logistic model; read-out: Z3 LC50.
Setting [5] is: single dose 33 μM; ligand treated / DMSO treated cells; read-out: Fold Induction Average, Z3 Assay (33 μM).
The mark [6] stands for this setting: single dose 33 μM; ligand treated / DMSO treated cells.

As to `COc1cccc(C(=O)C(C)(CC(C)C)NC(=O)c2cccc(OC)c2C)c1` (stereo not shown) [Example 53], under setting [1], the “Z3 Rel Max FI” value worked out at 0.11. Besides, under setting [2], the fold induction at 33 µM is 112. For the same molecule, under setting [3], the CC50 turned out to be 23.7 µM.
For `COc1cccc(C(=O)NC(C)(CC(C)C)C(=O)c2cc(C)cc(C)c2)c1C` (stereo not shown) [Example 55], the “Z3 Rel Max FI” value under setting [1] is listed as 0.72. Also, under setting [2], the fold induction at 33 µM stood at 309. Besides, the CC50 under setting [3] was determined as 3.4 µM.
Regarding `COc1cccc(C(=O)NC2(C(=O)c3ccc(F)cc3)CCCCC2)c1C` [Example 60], the “Z3 Rel Max FI” value under setting [1] turned out to be 0.61. Further, the fold induction at 33 µM under setting [2] is 817. For the same molecule, under setting [3], the CC50 is roughly 6 µM.
For `COc1cccc(C(=O)NC2(C(=O)c3cc(C)cc(C)c3)CCS(=O)(=O)CC2)c1C` [Example 62], in that order: 0.10, 347 and roughly 15 µM.
For `COc1cccc(C(=O)NC(C)(C(=O)c2ccccc2C)C(C)C)c1C` (stereo not shown) [Example 63], under setting [4], the CC50 is 17.9 µM. For the same molecule, the “Z3 Rel Max FI” value under setting [1] was found to be 0.26. Moreover, under setting [5], the fold induction at 33 µM was determined as 453.
As for `COc1ccc(C(=O)C2(NC(=O)c3cccc(OC)c3C)CCCCC2)c(OC)n1` [Example 64], the “Z3 Rel Max FI” value under setting [1] stood at 0.77. Moreover, under setting [2], the fold induction at 33 µM was determined as 1160. Also, under setting [3], the CC50 is 2.62 µM.
Consider `COc1cc(C(=O)C2(NC(=O)c3cccc(OC)c3C)CCCC2)cc(OC)c1C` [Example 65], for which the CC50 under setting [4] is 8.84 µM. Besides, under setting [1], the “Z3 Rel Max FI” value is 0.06. The “Fold Induction Average, Z3 Assay (33 μM)” value under setting [6] is reported as 151.
On to `COc1cc(C(=O)C2(NC(=O)c3cccc(OC)c3C)CCCCC2)cc(OC)c1C` [Example 66], for which the “Z3 Rel Max FI” value under setting [1] stood at 0.17. For the same molecule, the fold induction at 33 µM under setting [2] was found to be 341. The CC50 under setting [3] amounted to 3.33 µM.
On to `COc1cccc(C(=O)NC2(C(=O)c3cc(F)c(F)c(OC)c3)CCCC2)c1C` [Example 67], for which the “Z3 Rel Max FI” value under setting [1] amounted to 0.54. Besides, the fold induction at 33 µM under setting [2] stood at 666. In addition, the CC50 under setting [3] is 4.17 µM.
On the same counts, the results for `COc1cccc(C(=O)NC2(C(=O)c3cc(F)c(F)c(OC)c3)CCCCC2)c1C` [Example 68] are 0.70, 1010 and 2.83 µM.
For `COc1cccc(C(=O)NC2(C(=O)c3ccccc3)CCCCC2)c1C` [Example 69], in that order: 0.56, 1030 and 7.52 µM.
For the molecule `COc1ccccc1C(=O)C1(NC(=O)c2cccc(OC)c2C)CCCCCC1` [Example 70], under setting [4], the CC50 was 1.94 µM. Besides, the “Z3 Rel Max FI” value under setting [1] is on record as 0.78. Besides, the “Fold Induction Average, Z3 Assay (33 μM)” value under setting [6] turned out to be 831.
For `COc1cccc(C(=O)NC2(C(=O)c3cc(C)cc(C)c3)CCCCCC2)c1C` [Example 71], in that order: 1.61 µM, 0.69 and 952.
For `COc1ccccc1C(=O)C(C)(NC(=O)c1cccc(OC)c1C)c1ccc(F)cc1` (stereo not shown) [Example 72], under setting [6], the “Fold Induction Average, Z3 Assay (33 μM)” value is recorded as 1.
Still for that read-out and setting: in the case of `COc1ccccc1C(=O)C(C)(C)NC(=O)c1cccc(OC)c1C` [Example 74] it was 18.
As for `COc1cccc(C(=O)NC(C)(C)C(=O)c2cc(C)cc(C)c2)c1C` [Example 75], the CC50 under setting [4] was roughly 10 µM. For the same molecule, under setting [1], the “Z3 Rel Max FI” value turned out to be 0.17. Moreover, the “Fold Induction Average, Z3 Assay (33 μM)” value under setting [6] amounted to 312.
For `COc1cccc(C(=O)NC(C)(C)C(=O)c2ccccc2)c1C` [Example 76], in that order: greater than 33 µM, 0.00 and 1.
`CCC(CC)(NC(=O)c1cccc(OC)c1C)C(=O)c1ccc(C)cc1` [Example 77]: the CC50 under setting [4] was found to be 32.2 µM. Further, the “Z3 Rel Max FI” value under setting [1] stood at 0.04.
On the same counts, the results for `CCC(CC)(NC(=O)c1cccc(OC)c1C)C(=O)c1ccccc1` [Example 78] are greater than 33 µM and 0.06.
As to `COc1cccc(C(=O)NC2(C(=O)c3ccc(C)cc3)CCCC2)c1C` [Example 79], the CC50 under setting [4] is 34.4 µM. Besides, under setting [1], the “Z3 Rel Max FI” value turned out to be 0.12.
As for `COc1cccc(C(=O)C(C)(C)NC(=O)c2ccccc2OC)c1` [Example 117], the “Fold Induction Average, Z3 Assay (33 μM)” value under setting [6] worked out at 1.
As to `CCCCC(=O)C1(NC(=O)c2cccc(OC)c2C)CCCCC1` [Example 120], under setting [1], the “Z3 Rel Max FI” value stood at 0.36. Further, the fold induction at 33 µM under setting [2] was 791. Under setting [3], the CC50 came to 6.33 µM.
Take `O=C(NC1(C(=O)c2ccccc2)CCCC1)c1ccccc1` [Example 139]: under setting [4], the CC50 is greater than 33 µM. In addition, the “Z3 Rel Max FI” value under setting [1] stood at 0.00.
On the same counts, the results for `COc1cccc(C(=O)NC2(C(=O)c3ccccc3)CCCC2)c1` [Example 141] are greater than 33 µM and 0.00.
For `CCc1c(OC)cccc1C(=O)NC1(C(=O)c2cc(C)cc(C)c2)CCCCC1` [Example 143], in that order: 1.81 µM and 0.85.
For `CCc1c(OC)cccc1C(=O)NC1(C(=O)c2cc(C)cc(C)c2)CCCC1` [Example 144], in that order: 2.15 µM and 0.86.
Take `COc1cccc(C(=O)NC2(C(=O)c3cc(C)cc(C)c3)CCN(C(C)=O)CC2)c1C` [Example 149]: under setting [5], the fold induction at 33 µM was determined as 2.
Take `CCNC(=O)N1CCC(NC(=O)c2cccc(OC)c2C)(C(=O)c2cc(C)cc(C)c2)CC1` [Example 157]: the “Fold Induction Average, Z3 Assay (33 μM)” value under setting [6] was 2.
